# Patent publication EP4745153A1, “GLP-1, GIP AND GCG RECEPTOR […] USE THEREOF” (Jiangsu Hengrui Pharmaceuticals Co., Ltd., priority 2023, dated 2025)
# Where two headings read alike, the source gives them in different places. Starred links: 1 amine or outer side, 2 acyl side, 3 side chain; linkers in the order of their positions; H or OH if unused. Non-standard residues stand in square brackets, D forms with d. Residues, ends and D or L forms follow the SMILES beside them. Groups on a side chain read outwards from the residue. No end group written: not given here. *: point of attachment. C20 diacid = O=C(O)CCCCCCCCCCCCCCCCCCC(=O)*; γGlu = O=C(O)[C@H](CCC(=O)[*:2])N[*:1]; αMeL = CC(C)C[C@](C)(N)C(=O)O; αMeK = C[C@](N)(CCCCN)C(=O)O; αMeS = C[C@](N)(CO)C(=O)O; AEEA = NCCOCCOCC(=O)O; Aib = CC(C)(N)C(=O)O
# T1: human GIPR (Homo sapiens, UniProt P48546)
# T1 construct: expressed in transfected cells; host or cells: CHO-K1 clonal cell line
# T1 sequence (P48546 22-466): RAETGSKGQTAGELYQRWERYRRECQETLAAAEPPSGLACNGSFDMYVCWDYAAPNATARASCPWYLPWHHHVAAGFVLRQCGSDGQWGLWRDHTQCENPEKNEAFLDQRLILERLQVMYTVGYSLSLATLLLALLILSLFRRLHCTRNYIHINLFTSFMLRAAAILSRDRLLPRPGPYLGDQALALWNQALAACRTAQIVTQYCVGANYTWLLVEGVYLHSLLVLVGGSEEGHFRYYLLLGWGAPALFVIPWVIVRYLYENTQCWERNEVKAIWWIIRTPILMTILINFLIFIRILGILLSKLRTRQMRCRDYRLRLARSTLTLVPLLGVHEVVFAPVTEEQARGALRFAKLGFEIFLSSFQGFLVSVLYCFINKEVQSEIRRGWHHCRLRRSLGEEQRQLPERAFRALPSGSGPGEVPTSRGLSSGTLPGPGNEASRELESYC
# T2: human glucose-dependent insulinotropic polypeptide receptor (human, UniProt P48546 22-466)
# T2 sequence (looked up): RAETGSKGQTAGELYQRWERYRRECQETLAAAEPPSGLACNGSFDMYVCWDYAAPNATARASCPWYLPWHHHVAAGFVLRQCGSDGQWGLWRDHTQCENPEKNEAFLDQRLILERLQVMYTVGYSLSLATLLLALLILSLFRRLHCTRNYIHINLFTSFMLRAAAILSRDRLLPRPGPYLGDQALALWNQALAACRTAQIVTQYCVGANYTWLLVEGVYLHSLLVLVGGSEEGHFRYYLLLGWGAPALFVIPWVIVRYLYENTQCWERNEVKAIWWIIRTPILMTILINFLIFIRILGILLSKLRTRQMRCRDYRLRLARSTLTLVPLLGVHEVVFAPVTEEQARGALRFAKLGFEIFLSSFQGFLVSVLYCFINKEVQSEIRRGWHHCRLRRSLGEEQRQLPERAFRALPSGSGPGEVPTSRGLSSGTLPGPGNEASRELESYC
# Assays:
# human GLP-1R = biological target: T3, human GLP-1R (Homo sapiens, UniProt P43220); assay: cAMP HTRF agonist activity assay in CHO-K1 cells expressing GLP-1R; format: cell-based
# T3 construct: expressed in transfected cells; host or cells: CHO-K1 clonal cell line
# Outline: (§1)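 cAMP accumulation measured by competitive HTRF after 30 min incubation of polypeptides with 5000 receptor-expressing CHO-K1 cells/well at 37°C. Percent of maximal response versus concentration fitted to a four-parameter logistic to give relative EC50.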
# human GIPR = biological target: T1, human GIPR; assay: cAMP HTRF agonist activity assay in CHO-K1 cells expressing GIPR; format: cell-based
# Outline: as §1
# [1] = Pharmacokinetics in mice after single intravenous injection; parameters: species or system C57 mice; conditions: mouse, in vivo, male C57 mice, single intravenous dose 200 nmol/kg, plasma
# Outline: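 Plasma concentrations were measured by positive-mode ESI LC-MS/MRM, with verapamil as internal standard, at time points from 5 min to 72 h. Samples came from three male C57 mice per compound, aged 4-6 weeks, dosed once intravenously with 200 nmol/kg in 1×PBS; PK parameters were derived with PKSolver.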
# [2] = In vivo efficacy in diet-induced obesity (DIO) mouse model; parameters: species or system C57BL/6J mice; conditions: 10 nmol/kg subcutaneous once daily for 24 days, indicating good safety
# From the text: In this example, a DIO mouse model established by high-fat diet induction was used to evaluate the effects on and improvement of obesity and diabetes-related indicators in DIO mice after subcutaneous injection of some of the compounds in the present disclosure.
# 4.1 Experimental methods: Obese male C57BL/6J mice (23-24 weeks old, obtained from Beijing Vital River Laboratory Animal Technology Co., Ltd.) induced by a high-fat diet were purchased. Six-week-old male C57BL/6J mice were fed a 60% high-fat diet (RD D12492) until their body weight reached 45-50g to obtain DIO model mice. After arriving at the facility and undergoing a week of acclimatization feeding, the animals were randomly divided into groups according to their body weight and administered vehicle (model group), LY3437943, Compound 15, Compound 16, Compound 17 and Compound 18 via subcutaneous injection in the neck. The compound was administered at a dose of 10 nmol/kg, and the frequency of administration was once daily via subcutaneous injection for 24 days. Each group contained 5 DIO mice. According to the experimental design, the body weight of each mouse was weighed and recorded daily at 3 pm or before administration, the average body weight of each group of mice was calculated, and a curve of body weight change over time was plotted. After the experiment, the fat and other organs of the mice were removed from various parts of the body, weighed, and recorded.
# [3] = Solubility in the vehicle; format: physicochemical; conditions: stated in the summary only, no test example
# [4] = biological target: T4, human glucagon-like peptide-1 receptor (human, UniProt P43220 24-463); assay: cell-based or functional assay
# Target sequence in this assay (P43220 24-463): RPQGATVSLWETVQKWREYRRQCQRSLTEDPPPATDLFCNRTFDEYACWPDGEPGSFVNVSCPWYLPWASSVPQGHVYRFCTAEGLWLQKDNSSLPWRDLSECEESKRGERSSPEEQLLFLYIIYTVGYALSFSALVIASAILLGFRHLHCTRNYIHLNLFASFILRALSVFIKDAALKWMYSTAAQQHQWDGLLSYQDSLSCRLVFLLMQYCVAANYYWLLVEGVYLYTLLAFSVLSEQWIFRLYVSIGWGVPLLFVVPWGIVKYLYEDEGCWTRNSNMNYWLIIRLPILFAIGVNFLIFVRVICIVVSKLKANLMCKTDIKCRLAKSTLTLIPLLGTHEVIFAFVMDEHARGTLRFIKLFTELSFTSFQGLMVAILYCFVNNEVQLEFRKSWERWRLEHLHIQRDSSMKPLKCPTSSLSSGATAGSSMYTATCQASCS
# human glucagon receptor [5] = biological target: T5, human glucagon receptor (human, UniProt P47871 26-477); assay: cell-based or functional assay
# [6] = biological target: human glucose-dependent insulinotropic polypeptide receptor (human) (UniProt P48546); assay: cell-based or functional assay
# [7] = biological target: T4, human glucagon-like peptide-1 receptor; assay: cell-based or functional assay; remark: listed apart in the source
# [8] = biological target: T2, human glucose-dependent insulinotropic …; assay: cell-based or functional assay
# human glucagon receptor [9] = biological target: T5, human glucagon receptor; assay: cell-based or functional assay; remark: listed apart in the source
# T5 sequence (P47871 26-477): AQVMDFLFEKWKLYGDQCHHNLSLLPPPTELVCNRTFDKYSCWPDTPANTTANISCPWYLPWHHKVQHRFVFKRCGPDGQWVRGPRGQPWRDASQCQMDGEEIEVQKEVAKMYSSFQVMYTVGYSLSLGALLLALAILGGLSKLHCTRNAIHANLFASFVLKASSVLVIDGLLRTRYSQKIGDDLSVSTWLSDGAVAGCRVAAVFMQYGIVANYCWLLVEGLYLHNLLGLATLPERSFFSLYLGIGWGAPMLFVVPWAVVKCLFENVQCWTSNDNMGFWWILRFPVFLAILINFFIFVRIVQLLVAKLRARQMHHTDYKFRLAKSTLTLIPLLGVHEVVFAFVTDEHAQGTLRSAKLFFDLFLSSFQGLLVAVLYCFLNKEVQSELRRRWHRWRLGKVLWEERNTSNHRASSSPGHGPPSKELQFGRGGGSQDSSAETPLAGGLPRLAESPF
# T3 sequence (P43220 24-463): as the sequence (P43220 24-463) above
molecule,measurement,setting,value
CC[C@H](C)[C@H](NC(=O)[C@H](CO)NC(=O)[C@H](Cc1ccc(O)cc1)NC(=O)[C@H](CC(=O)O)NC(=O)[C@H](CO)NC(=O)[C@@H](NC(=O)[C@H](Cc1ccccc1)NC(=O)[C@@H](NC(=O)CNC(=O)[C@H](Cc1c[nH]cn1)NC(=O)C(C)(C)NC(=O)[C@@H](N)Cc1c[nH]cn1)[C@@H](C)O)[C@@H](C)O)C(=O)N[C@@](C)(CC(C)C)C(=O)N[C@@H](CC(C)C)C(=O)N[C@@H](CCC(=O)O)C(=O)N[C@@H](CCCCNC(=O)COCCOCCNC(=O)COCCOCCNC(=O)CC[C@H](NC(=O)CCCCCCCCCCCCCCCCCCC(=O)O)C(=O)O)C(=O)N[C@@H](CCCCN)C(=O)N[C@@H](C)C(=O)N[C@@H](C)C(=O)N[C@@H](CCC(N)=O)C(=O)N[C@@H](CCC(=O)O)C(=O)N[C@@H](Cc1ccccc1)C(=O)N[C@H](C(=O)N[C@@H](CCC(=O)O)C(=O)N[C@@H](Cc1c[nH]c2ccccc12)C(=O)N[C@@H](CC(C)C)C(=O)N[C@@H](CC(C)C)C(=O)N[C@@H](C)C(=O)NCC(=O)NCC(=O)N1CCC[C@H]1C(=O)N[C@@H](CO)C(=O)N[C@@H](CO)C(=O)NCC(=O)N[C@@H](C)C(=O)N1CCC[C@H]1C(=O)N1CCC[C@H]1C(=O)N1CCC[C@H]1C(=O)N[C@@H](CO)C(N)=O)C(C)C [Compound 0125] (H-H[Aib]HGTFTSDYSI[αMeL]LEK([AEEA-AEEA-γGlu-C20 diacid])KAAQEFVEWLLAGGPSSGAPPPS-NH2),EC50,human GLP-1R,32 pM
same,EC50,human GIPR,2 pM
same,AUC(0-inf),[1],96.1 µM·h
same,C0,[1],5.79 µM
same,clearance,[1]; read-out: CLp,2.1 mL/h/kg
same,half-life,[1]; read-out: T1/2 (converted),14.6 h
same,final body weight relative to body weight of mice on a normal diet (Chow),[2],≥ 80%
same,solubility in the vehicle,[3],≥ 20 mg/mL
LY3437943 (peptide),Activity against human GLP-1R (EC50 nM),[4],0.08 nM
same,Activity against human GCGR (EC50 nM),human glucagon receptor [5],0.412 nM
same,Activity against human GIPR (EC50 nM),[6],0.002 nM
H[Aib]HGTFTSDYS[αMeK]LLEK([AEEA-AEEA-γGlu-C20 diacid])KAA[αMeS]EFVEWLIEGGPSSGAPPPS-NH2 (N-terminus assumed; SMILES CC[C@H](C)[C@H](NC(=O)[C@H](CC(C)C)NC(=O)[C@H](Cc1c[nH]c2ccccc12)NC(=O)[C@H](CCC(=O)O)NC(=O)[C@@H](NC(=O)[C@H](Cc1ccccc1)NC(=O)[C@H](CCC(=O)O)NC(=O)[C@](C)(CO)NC(=O)[C@H](C)NC(=O)[C@H](C)NC(=O)[C@H](CCCCN)NC(=O)[C@H](CCCCNC(=O)COCCOCCNC(=O)COCCOCCNC(=O)CC[C@H](NC(=O)CCCCCCCCCCCCCCCCCCC(=O)O)C(=O)O)NC(=O)[C@H](CCC(=O)O)NC(=O)[C@H](CC(C)C)NC(=O)[C@H](CC(C)C)NC(=O)[C@](C)(CCCCN)NC(=O)[C@H](CO)NC(=O)[C@H](Cc1ccc(O)cc1)NC(=O)[C@H](CC(=O)O)NC(=O)[C@H](CO)NC(=O)[C@@H](NC(=O)[C@H](Cc1ccccc1)NC(=O)[C@@H](NC(=O)CNC(=O)[C@H](Cc1c[nH]cn1)NC(=O)C(C)(C)NC(=O)[C@@H](N)Cc1c[nH]cn1)[C@@H](C)O)[C@@H](C)O)C(C)C)C(=O)N[C@@H](CCC(=O)O)C(=O)NCC(=O)NCC(=O)N1CCC[C@H]1C(=O)N[C@@H](CO)C(=O)N[C@@H](CO)C(=O)NCC(=O)N[C@@H](C)C(=O)N1CCC[C@H]1C(=O)N1CCC[C@H]1C(=O)N1CCC[C@H]1C(=O)N[C@@H](CO)C(N)=O) [Compound No. 0126],Activity against human GLP-1R (EC50 nM),[7],0.008 nM
same,Activity against human GIPR (EC50 nM),[8],0.002 nM
same,Activity against human GCGR (EC50 nM),human glucagon receptor [9],0.008 nM
